The values below come from US11642316B2, “Water-soluble curcumin mixture with high bioavailability and preparation method and application thereof” (HENAN ZHONGDA HENGYUAN BIOTECHNOLOGY STOCK CO., LTD., priority 2021, dated 2023).

A short description of this series: Bioavailability test of water-soluble curcumin mixture in rats (plasma, HPLC-MS/MS). The settings on record: intragastric administration, 200 mg·kg^−1 calculated as curcumin, plasma 0.167-12 h. Format: in vivo.

Description: After experimental testing in rats, the bioavailability test method of water-soluble curcumin mixture was verified according to the “Guidelines for Validation of 9012 Biological Sample Quantitative Analysis Method” in the fourth appendix of the Pharmacopoeia of the People's Republic of China (2015 Edition). Specific steps are as follows:
24 Healthy SD (spontaneous mutant Danforth's short tail) rats were randomly divided into 4 groups (6 in each group) after being adaptively reared for one week;
In each group, about 0.3 mL of blood was collected from the orbit at 0.167, 0.5, 1, 1.5, 2, 3, 5, 8 and 12 hours after administration, and centrifuged at 4000 rpm for 10 minutes. The plasma was stored at −20° C. for later use.
Separating 100 μL of plasma, adding 0.3 mL of ethyl acetate, mixing for 2 min, centrifuging at 4000 rpm for 10 min, and separating the supernatant; adding 0.3 mL of ethyl acetate to the precipitate, mixing for 2 min, and centrifuging at 4000 rpm for 10 min, vacuum drying at 40° C. Adding 100 μL of methanol to the residue, wetting the centrifuge tube, mixing for 2 min, filtering with 0.22 μm microporous membrane, analyzing and testing.
HPLC-MS/MS with emodin as the internal standard was used for detection, and DAS2.0 software was used to calculate the pharmacokinetic parameters and compare the relative bioavailability.

Regarding `COc1cc(/C=C/C(=O)CC(=O)/C=C/c2ccc(O)c(OC)c2)ccc1O` [curcumin], the “AUC (012 h)” value (SD rats) was 140.36 ng·h/mL. For the same molecule, the AUC(0-t) (SD, rat, plasma, po, 200 mg/kg, read-out: AUC (012 h)) is 108 ng·h/mL.
